# Laboratory results as given in patent publication US10597388B2, “Pyridazinone herbicides” (FMC CORPORATION, priority 2014, dated 2020).
# Experiments:
# Assay type in all cases: in vivo
# [1] = system: johnsongrass (Sorghum halepense); test: Test E greenhouse herbicide test, pre- and postemergence; settings: Preemergence
# Excerpt: (§1) Seeds of plant species selected from corn (Zea mays), soybean (Glycine max), velvetleaf (Abutilon theophrasti), lambsquarters (Chenopodium album), wild poinsettia (Euphorbia heterophylla), pigweed, palmer (palmer pigweed, Amaranthus palmeri), waterhemp (common waterhemp, Amaranthus rudis), surinam grass (Brachiaria decumbens), crabgrass, large (large crabgrass, Digitaria sanguinalis), crabgrass, Brazilian (Brazilian crabgrass, Digitaria horizontalis), panicum, fall (fall panicum, Panicum dichotomiflorum), foxtail, giant (giant foxtail, Setaria faberii), foxtail, green (green foxtail, Setaria viridis), goosegrass (Eleusine indica), johnsongrass (Sorghum halepense), ragweed (common ragweed, Ambrosia elatior), barnyardgrass (Echinochloa crus-galli), sandbur (southem sandbur, Cenchrus echinatus), arrowleaf sida (Sida rhombifolia), Italian ryegrass (Lolium multiflorum), dayflower (Virginia (VA) dayflower, Commelina virginica), field bindweed (Convolvulus arvensis), momingglory (Ipomoea coccinea), nightshade (eastern black nightshade, Solanum ptycanthum), kochia (Kochia scoparia), nutsedge, yellow (yellow nutsedge, Cyperus esculentus), horseweed (Conyza canadensis), and beggarticks (hairy beggarticks, Bidens pilosa), were planted into a silt loam soil and treated preemergence with test chemicals formulated in a non-phytotoxic solvent mixture which included a surfactant.
# (§2) At the same time, plants from these crop and weed species and also waterhemp_RES1, (ALS & Triazine resistant common waterhemp, Amaranthus rudis), and waterhemp_RES2, (ALS & HPPD resistant common waterhemp, Amaranthus rudis) were planted in pots containing Redi-Earth® planting medium (Scotts Company, 14111 Scottslawn Road, Marysville, Ohio 43041) comprising spaghnum peat moss, vermiculite, wetting agent and starter nutrients were treated with postemergence applications of test chemicals formulated in the same manner. Plants ranged in height from 2 to 18 cm for postemergence treatments (1- to 4-leaf stage). Treated plants and controls were maintained in a greenhouse for 14 to 21 d, after which time all species were compared to controls and visually evaluated. Plant response ratings, summarized in Table E, are based on a scale of 0 to 100 where 0 is no effect and 100 is complete control. A dash (-) response means no test result.
# soybean (Glycine max) = test: as above
# Excerpt: as §1, §2
# [2] = system: foxtail, green (green foxtail, Setaria viridis); test: as above; settings: Preemergence
# Excerpt: as §1, §2
# [3] = system: arrowleaf sida (Sida rhombifolia); test: as above
# Excerpt: as §1, §2
# [4] = system: crabgrass, large (large crabgrass, Digitaria sanguinalis); test: as above; settings: Preemergence
# Excerpt: as §1, §2
# [5] = system: pigweed, palmer (palmer pigweed, Amaranthus palmeri); test: as above
# Excerpt: as §1, §2
# [6] = system: momingglory (Ipomoea coccinea); test: as above; settings: Preemergence
# Excerpt: as §1, §2
# [7] = system: velvetleaf (Abutilon theophrasti); test: as above; settings: Preemergence
# Excerpt: as §1, §2
# kochia (Kochia scoparia) = test: as above
# Excerpt: as §1, §2
# [8] = system: foxtail, giant (giant foxtail, Setaria faberii); test: as above; settings: Preemergence
# Excerpt: as §1, §2
# [9] = system: Italian ryegrass (Lolium multiflorum); test: as above
# Excerpt: as §1, §2
# [10] = system: horseweed (Conyza canadensis); test: as above
# Excerpt: as §1, §2
# [11] = system: dayflower (Virginia (VA) dayflower, Commelina virginica); test: as above
# Excerpt: as §1, §2
# [12] = system: waterhemp_RES1 (ALS & Triazine resistant common waterhemp, Amaranthus rudis); test: Test E greenhouse herbicide test, postemergence
# Method in brief: (§3)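 Seedlings were raised in pots of peat moss and vermiculite medium with starter nutrients until they reached the 1- to 4-leaf stage. They were then treated postemergence and held in a greenhouse for 14–21 d. Finally, response was scored visually on a 0–100 control scale.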
# [13] = system: waterhemp_RES2 (ALS & HPPD resistant common waterhemp, Amaranthus rudis); test: Test E greenhouse herbicide test, postemergence
# Method in brief: as §3
# [14] = 31 g ai/ha, scale 0 to 100, 0 no effect, 100 complete control
# [15] = 250 g ai/ha, visual, scale 0 no effect to 100 complete control
# [16] = 62 g ai/ha, Postemergence, scale 0 to 100 (0 no effect, 100 complete control)
# [17] = 62 g ai/ha, Preemergence, scale 0 to 100 (0 no effect, 100 complete control)
# [18] = 125 g ai/ha, Postemergence, scale 0 to 100 (0 no effect, 100 complete control)
# [19] = 125 g ai/ha, Preemergence, scale 0 to 100 (0 no effect, 100 complete control)
# [20] = 250 g ai/ha, Postemergence, scale 0 to 100 (0 no effect, 100 complete control)
# [21] = Postemergence, 31 g ai/ha, visual, scale 0 no effect to 100 complete control
# [22] = Preemergence, 31 g ai/ha, scale 0 to 100, 0 no effect, 100 complete control
# [23] = 62 g ai/ha, scale 0 to 100 (0 no effect, 100 complete control)
# [24] = 125 g ai/ha, visual, scale 0 no effect to 100 complete control
# [25] = Preemergence, 125 g ai/ha, visual, scale 0 no effect to 100 complete control
# [26] = Preemergence, 250 g ai/ha, visual, scale 0 no effect to 100 complete control
# [27] = 125 g ai/ha, scale 0 to 100 (0 no effect, 100 complete control)
# [28] = 31 g ai/ha, visual, scale 0 no effect to 100 complete control
# [29] = 250 g ai/ha, scale 0 to 100 (0 no effect, 100 complete control)
compound,measurement,setting,value
Cn1nc(Br)c(O)c(-c2cccc3ccccc23)c1=O [Compound 20],"Plant response rating, Johnsongrass",[1]; [14],0
same,"Plant response rating, Johnsongrass",[1]; [15],0
same,"Plant response rating, Soybean",soybean (Glycine max); [16],20
same,"Plant response rating, Soybean",soybean (Glycine max); [17],0
same,"Plant response rating, Soybean",soybean (Glycine max); [18],40
same,"Plant response rating, Soybean",soybean (Glycine max); [19],20
same,"Plant response rating, Soybean",soybean (Glycine max); [20],30
same,"Plant response rating, Soybean",soybean (Glycine max); [21],20
same,"Plant response rating, Soybean",soybean (Glycine max); [22],0
same,"Plant response rating, Foxtail, Green",[2]; [23],40
same,"Plant response rating, Foxtail, Green",[2]; [14],0
same,"Plant response rating, Foxtail, Green",[2]; [24],65
same,"Plant response rating, Foxtail, Green",[2]; [15],70
same,"Plant response rating, Arrowleaf Sida",[3]; [16],60
same,"Plant response rating, Arrowleaf Sida",[3]; [17],70
same,"Plant response rating, Arrowleaf Sida",[3]; [18],70
same,"Plant response rating, Arrowleaf Sida",[3]; [20],80
same,"Plant response rating, Arrowleaf Sida",[3]; [21],40
same,"Plant response rating, Arrowleaf Sida",[3]; [22],0
same,"Plant response rating, Arrowleaf Sida",[3]; [25],85
same,"Plant response rating, Arrowleaf Sida",[3]; [26],95
same,"Plant response rating, Crabgrass, Large",[4]; [23],35
same,"Plant response rating, Crabgrass, Large",[4]; [14],30
same,"Plant response rating, Crabgrass, Large",[4]; [24],35
same,"Plant response rating, Crabgrass, Large",[4]; [15],30
same,"Plant response rating, Pigweed, Palmer",[5]; [16],35
same,"Plant response rating, Pigweed, Palmer",[5]; [17],0
same,"Plant response rating, Pigweed, Palmer",[5]; [18],55
same,"Plant response rating, Pigweed, Palmer",[5]; [19],5
same,"Plant response rating, Pigweed, Palmer",[5]; [20],70
same,"Plant response rating, Pigweed, Palmer",[5]; [21],40
same,"Plant response rating, Pigweed, Palmer",[5]; [22],0
same,"Plant response rating, Pigweed, Palmer",[5]; [26],70
same,"Plant response rating, Morningglory",[6]; [23],75
same,"Plant response rating, Morningglory",[6]; [27],90
same,"Plant response rating, Morningglory",[6]; [14],20
same,"Plant response rating, Morningglory",[6]; [15],95
same,"Plant response rating, Velvetleaf",[7]; [23],65
same,"Plant response rating, Velvetleaf",[7]; [27],80
same,"Plant response rating, Velvetleaf",[7]; [14],0
same,"Plant response rating, Velvetleaf",[7]; [15],100
same,"Plant response rating, Kochia",kochia (Kochia scoparia); [16],65
same,"Plant response rating, Kochia",kochia (Kochia scoparia); [17],90
same,"Plant response rating, Kochia",kochia (Kochia scoparia); [18],75
same,"Plant response rating, Kochia",kochia (Kochia scoparia); [20],90
same,"Plant response rating, Kochia",kochia (Kochia scoparia); [21],60
same,"Plant response rating, Kochia",kochia (Kochia scoparia); [22],0
same,"Plant response rating, Kochia",kochia (Kochia scoparia); [25],98
same,"Plant response rating, Kochia",kochia (Kochia scoparia); [26],100
same,"Plant response rating, Foxtail, Giant",[8]; [23],20
same,"Plant response rating, Foxtail, Giant",[8]; [14],5
same,"Plant response rating, Foxtail, Giant",[8]; [24],75
same,"Plant response rating, Foxtail, Giant",[8]; [15],90
same,"Plant response rating, Ryegrass, Italian",[9]; [16],50
same,"Plant response rating, Ryegrass, Italian",[9]; [17],95
same,"Plant response rating, Ryegrass, Italian",[9]; [18],70
same,"Plant response rating, Ryegrass, Italian",[9]; [19],98
same,"Plant response rating, Ryegrass, Italian",[9]; [20],80
same,"Plant response rating, Ryegrass, Italian",[9]; [21],40
same,"Plant response rating, Ryegrass, Italian",[9]; [22],90
same,"Plant response rating, Ryegrass, Italian",[9]; [26],100
same,"Plant response rating, Horseweed",[10]; [16],80
same,"Plant response rating, Horseweed",[10]; [17],100
same,"Plant response rating, Horseweed",[10]; [18],70
same,"Plant response rating, Horseweed",[10]; [20],85
same,"Plant response rating, Horseweed",[10]; [21],70
same,"Plant response rating, Horseweed",[10]; [22],100
same,"Plant response rating, Horseweed",[10]; [25],100
same,"Plant response rating, Horseweed",[10]; [26],100
same,"Plant response rating, Dayflower, VA",[11]; [16],10
same,"Plant response rating, Dayflower, VA",[11]; [17],0
same,"Plant response rating, Dayflower, VA",[11]; [18],50
same,"Plant response rating, Dayflower, VA",[11]; [20],50
same,"Plant response rating, Dayflower, VA",[11]; [21],0
same,"Plant response rating, Dayflower, VA",[11]; [22],0
same,"Plant response rating, Dayflower, VA",[11]; [25],0
same,"Plant response rating, Dayflower, VA",[11]; [26],0
same,"Plant response rating, Waterhemp_RES1",[12]; [28],60
same,"Plant response rating, Waterhemp_RES1",[12]; [23],70
same,"Plant response rating, Waterhemp_RES1",[12]; [27],80
same,"Plant response rating, Waterhemp_RES1",[12]; [29],80
same,"Plant response rating, Waterhemp_RES2",[13]; [28],50
same,"Plant response rating, Waterhemp_RES2",[13]; [23],50
same,"Plant response rating, Waterhemp_RES2",[13]; [27],50
same,"Plant response rating, Waterhemp_RES2",[13]; [29],60
